# Test results: ChEMBL document CHEMBL1201862, “PubChem BioAssay data set” (2004)
#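 Cells were grown in 96-well plates and exposed to each compound for 48 hours at five concentrations; endpoints were interpolated linearly between bracketing concentrations, or set to the highest concentration if not reached. At the GI50, growth is halved.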 Active and inactive are the calls of the source. No stated cut-off is given here; in the data, active = GI50 up to about 1.1 µM and inactive = higher.
# Assays:
# Experiment in all cases: DTP human tumour cell line panel, 48 h
# [1] = system: OVCAR-3
# [2] = system: SR
# [3] = system: PC-3
# [4] = system: HCC 2998
# [5] = system: SK-OV-3
# [6] = system: SF-268
# [7] = system: OVCAR-5
# [8] = system: MOLT-4
# [9] = system: HOP-62
# [10] = system: DU-145
# [11] = system: SNB-19
# [12] = system: KM12
# [13] = system: BT-549
# [14] = system: HCT-116
# [15] = system: NCI-H460
# [16] = system: NCI-H522
# [17] = system: HOP-92
# [18] = system: UO-31
# [19] = system: SN12C
# [20] = system: U-251
# [21] = system: T47D
# [22] = system: A498
# [23] = system: NCI-H23
# [24] = system: SNB-75
# [25] = system: MDA-MB-231
# [26] = system: MDA-MB-435
# [27] = system: MCF7
# [28] = system: NCI/ADR-RES
# [29] = system: EKVX
# [30] = system: HCT-15
# [31] = system: OVCAR-8
# [32] = system: 786-0
# [33] = system: SF-295
# [34] = system: SF-539
# [35] = system: UACC-62
# [36] = system: Hs-578T
# [37] = system: IGROV-1
# [38] = system: SK-MEL-2
# [39] = system: NCI-H226
# [40] = system: K562
# [41] = system: M14
# [42] = system: ACHN
# [43] = system: CCRF-CEM
# [44] = system: SK-MEL-28
# [45] = system: TK-10
# [46] = system: HT-29
# [47] = system: SK-MEL-5
# [48] = system: OVCAR-4
# [49] = system: LOX IMVI
# [50] = system: CAKI-1
# [51] = system: SW-620
# [52] = system: A549
# [53] = system: COLO 205
# [54] = system: RXF 393
# [55] = system: UACC-257
# [56] = system: Malme-3M
# [57] = system: MDA-N
# [58] = system: HL-60
smiles,measurement,setting,value
Cc1sc(Nc2ccc(Nc3nc(-c4ccccc4)c(C)s3)cc2)nc1-c1ccccc1,GI50,[1],> 100 µM (inactive)
same,GI50,[2],20.9 µM (inactive)
same,GI50,[3],16.6 µM (inactive)
same,GI50,[4],16.9 µM (inactive)
same,GI50,[5],> 100 µM (inactive)
same,GI50,[6],> 100 µM (inactive)
same,GI50,[7],> 100 µM (inactive)
same,GI50,[8],17.1 µM (inactive)
same,GI50,[9],> 100 µM (inactive)
same,GI50,[10],74 µM (inactive)
same,GI50,[11],> 100 µM (inactive)
same,GI50,[12],> 100 µM (inactive)
same,GI50,[13],> 100 µM (inactive)
same,GI50,[14],62.2 µM (inactive)
same,GI50,[15],18.2 µM (inactive)
same,GI50,[16],35.4 µM (inactive)
same,GI50,[17],> 100 µM (inactive)
same,GI50,[18],89.7 µM (inactive)
same,GI50,[19],31.3 µM (inactive)
same,GI50,[20],13.7 µM (inactive)
same,GI50,[21],8.95 µM (inactive)
same,GI50,[22],21.8 µM (inactive)
same,GI50,[23],28.7 µM (inactive)
same,GI50,[24],48.4 µM (inactive)
same,GI50,[25],42 µM (inactive)
same,GI50,[26],> 100 µM (inactive)
same,GI50,[27],21.8 µM (inactive)
same,GI50,[28],41.4 µM (inactive)
same,GI50,[29],> 100 µM (inactive)
same,GI50,[30],44.8 µM
same,GI50,[31],> 100 µM (inactive)
same,GI50,[32],21.2 µM (inactive)
same,GI50,[33],95.9 µM (inactive)
same,GI50,[34],26.3 µM (inactive)
same,GI50,[35],54.3 µM (inactive)
same,GI50,[36],> 100 µM (inactive)
same,GI50,[37],> 100 µM (inactive)
same,GI50,[38],21.7 µM (inactive)
same,GI50,[39],63.1 µM (inactive)
same,GI50,[40],18.6 µM (inactive)
same,GI50,[41],61.2 µM (inactive)
same,GI50,[42],36.5 µM (inactive)
same,GI50,[43],2.29 µM (inactive)
same,GI50,[44],> 100 µM (inactive)
same,GI50,[45],57.8 µM (inactive)
same,GI50,[46],60 µM (inactive)
same,GI50,[47],22.6 µM (inactive)
same,GI50,[48],> 100 µM (inactive)
same,GI50,[49],40.6 µM (inactive)
same,GI50,[50],88.1 µM (inactive)
same,GI50,[51],40.2 µM (inactive)
same,GI50,[52],30.1 µM (inactive)
same,GI50,[53],16.2 µM (inactive)
same,GI50,[54],8.67 µM (inactive)
same,GI50,[55],43.1 µM (inactive)
same,GI50,[56],> 100 µM (inactive)
C/C=C(C)/C=C/CC(C)CCC=C(C)C (stereo not drawn),GI50,[1],> 100 µM (inactive)
same,GI50,[2],> 100 µM (inactive)
same,GI50,[5],> 100 µM (inactive)
same,GI50,[7],> 100 µM (inactive)
same,GI50,[8],> 100 µM (inactive)
same,GI50,[10],> 100 µM (inactive)
same,GI50,[11],> 100 µM (inactive)
same,GI50,[12],> 100 µM (inactive)
same,GI50,[13],> 100 µM (inactive)
same,GI50,[14],> 100 µM (inactive)
same,GI50,[15],> 100 µM (inactive)
same,GI50,[17],> 100 µM (inactive)
same,GI50,[18],> 100 µM (inactive)
same,GI50,[19],> 100 µM (inactive)
same,GI50,[20],> 100 µM (inactive)
same,GI50,[22],> 100 µM (inactive)
same,GI50,[24],> 100 µM (inactive)
same,GI50,[25],> 100 µM (inactive)
same,GI50,[26],> 100 µM (inactive)
same,GI50,[27],> 100 µM (inactive)
same,GI50,[28],> 100 µM (inactive)
same,GI50,[29],> 100 µM (inactive)
same,GI50,[30],> 100 µM
same,GI50,[57],> 100 µM (inactive)
same,GI50,[31],> 100 µM (inactive)
same,GI50,[32],> 100 µM (inactive)
same,GI50,[33],> 100 µM (inactive)
same,GI50,[34],> 100 µM (inactive)
same,GI50,[35],> 100 µM (inactive)
same,GI50,[37],> 100 µM (inactive)
same,GI50,[38],> 100 µM (inactive)
same,GI50,[39],> 100 µM (inactive)
same,GI50,[40],> 100 µM (inactive)
same,GI50,[41],> 100 µM (inactive)
same,GI50,[42],> 100 µM (inactive)
same,GI50,[43],> 100 µM (inactive)
same,GI50,[44],> 100 µM (inactive)
same,GI50,[45],> 100 µM (inactive)
same,GI50,[46],> 100 µM (inactive)
same,GI50,[47],> 100 µM (inactive)
same,GI50,[48],92.9 µM (inactive)
same,GI50,[49],> 100 µM (inactive)
same,GI50,[50],> 100 µM (inactive)
same,GI50,[51],> 100 µM (inactive)
same,GI50,[58],44.5 µM (inactive)
same,GI50,[52],> 100 µM (inactive)
same,GI50,[53],> 100 µM (inactive)
same,GI50,[54],> 100 µM (inactive)
same,GI50,[55],> 100 µM (inactive)
c1ccc2sc(C3(N4CCCC4)CCCCCC3)cc2c1,GI50,[1],14.3 µM (inactive)
same,GI50,[2],18.8 µM (inactive)
same,GI50,[4],13.6 µM (inactive)
same,GI50,[5],16.8 µM (inactive)
same,GI50,[6],13.5 µM (inactive)
same,GI50,[7],11.7 µM (inactive)
same,GI50,[8],12.5 µM (inactive)
same,GI50,[9],18.5 µM (inactive)
same,GI50,[10],22.4 µM (inactive)
same,GI50,[11],14 µM (inactive)
same,GI50,[12],12.9 µM (inactive)
same,GI50,[13],21.4 µM (inactive)
same,GI50,[14],12.5 µM (inactive)
same,GI50,[15],13.3 µM (inactive)
same,GI50,[16],18.7 µM (inactive)
same,GI50,[17],12.6 µM (inactive)
same,GI50,[18],12.8 µM (inactive)
same,GI50,[19],15.3 µM (inactive)
same,GI50,[20],17.2 µM (inactive)
same,GI50,[22],16.6 µM (inactive)
same,GI50,[23],18 µM (inactive)
same,GI50,[24],13.5 µM (inactive)
same,GI50,[25],17.1 µM (inactive)
same,GI50,[26],16.4 µM (inactive)
same,GI50,[27],18.4 µM (inactive)
same,GI50,[28],19.7 µM (inactive)
same,GI50,[29],17.3 µM (inactive)
same,GI50,[30],17.5 µM
same,GI50,[57],15.7 µM (inactive)
same,GI50,[31],17.9 µM (inactive)
same,GI50,[32],14.1 µM (inactive)
same,GI50,[33],15 µM (inactive)
same,GI50,[34],19.6 µM (inactive)
same,GI50,[35],16.2 µM (inactive)
same,GI50,[37],19.1 µM (inactive)
same,GI50,[39],21.3 µM (inactive)
same,GI50,[40],17.2 µM (inactive)
same,GI50,[41],14.8 µM (inactive)
same,GI50,[42],23.6 µM (inactive)
same,GI50,[43],10.7 µM (inactive)
same,GI50,[44],20.4 µM (inactive)
same,GI50,[45],17.4 µM (inactive)
same,GI50,[46],4.1 µM (inactive)
same,GI50,[47],16.6 µM (inactive)
same,GI50,[48],13.4 µM (inactive)
same,GI50,[49],14.7 µM (inactive)
same,GI50,[50],20.9 µM (inactive)
same,GI50,[51],16.9 µM (inactive)
same,GI50,[58],17.4 µM (inactive)
same,GI50,[52],19.6 µM (inactive)
same,GI50,[53],14 µM (inactive)
same,GI50,[54],12.3 µM (inactive)
same,GI50,[55],16 µM (inactive)
